Laboratory results published in US20230114728A1 (Venatorx Pharmaceuticals, Inc., priority 2019, published 2023).
Values after ≈ are worked out from the molar mass of the structure shown. Like-named read-outs stand apart in the source and are kept apart here.

Key:
[1] = target: T1, E. coli K12 PBP3 (Escherichia coli, UniProt P0AD68); assay: biochemical; type: binding
T1 construct: made in house
Summary of the method: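 Fluorescence polarization (ex 490/em 520 nm) competition of inhibitors against Bocillin-FL at 0.1 μM, read up to 60 min. Final PBP levels: E. coli PBP3 1.5 μM; A. baumannii PBP2 2.5 μM, PBP3 0.2 μM in Tris pH 8.0/NaCl/glycerol/Tween 20; N. gonorrhoeae PBP2 […] in Hepes pH 8.0/NaCl/glycerol. EC50 = concentration halving PBP-bound Bocillin-FL.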

[2] = target: T2, P. aeruginosa PBP3 (Pseudomonas aeruginosa, UniProt G3XD46); assay: Bocillin-FL fluorescence polarization competition binding assay, P. aeruginosa PBP3; details: fluorescence polarization competition binding assay using Bocillin-FL
T2 construct: made in house
T2 sequence (G3XD46 whole entry): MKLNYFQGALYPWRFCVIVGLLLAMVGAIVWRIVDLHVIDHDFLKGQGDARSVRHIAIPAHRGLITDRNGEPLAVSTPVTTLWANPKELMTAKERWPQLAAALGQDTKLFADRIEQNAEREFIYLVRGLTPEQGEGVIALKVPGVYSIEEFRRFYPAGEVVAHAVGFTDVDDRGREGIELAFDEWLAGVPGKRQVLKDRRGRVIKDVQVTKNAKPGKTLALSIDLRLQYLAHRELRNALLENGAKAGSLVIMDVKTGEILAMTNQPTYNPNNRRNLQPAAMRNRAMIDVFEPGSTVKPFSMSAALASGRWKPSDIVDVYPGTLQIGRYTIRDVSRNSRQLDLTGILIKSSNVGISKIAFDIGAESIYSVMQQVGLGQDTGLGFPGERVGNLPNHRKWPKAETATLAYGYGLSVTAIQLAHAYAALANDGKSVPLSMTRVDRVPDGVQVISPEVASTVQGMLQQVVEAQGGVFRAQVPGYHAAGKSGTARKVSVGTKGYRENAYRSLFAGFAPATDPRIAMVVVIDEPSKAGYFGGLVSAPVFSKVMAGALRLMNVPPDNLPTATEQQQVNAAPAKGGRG
Summary of the method: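 Binding of boronic acid inhibitors to purified Pseudomonas aeruginosa (PA01) PBP3 was measured by fluorescence polarization competition with Bocillin-FL, a fluorescent penicillin V. Reactions of 80 μl contained 0.75 μM PBP3 and 0.1 μM Bocillin-FL in 50 mM Hepes (pH 8.0), 300 mM NaCl and 5% (v/v) glycerol, in black 384-well plates. FP (Excitation 490 nm, Emission 520 nm) was read for up to 60 minutes. EC50 is the concentration that halves PBP-bound Bocillin-FL.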

[3] = test system: N. gonorrhoeae ATCC 49226; assay: Liquid broth MIC in Fastidious broth; type: cell-based; details: Neisseria gonorrhoeae, ATCC49226, Fastidious broth
Summary of the method: (§1)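 Colonies were swabbed from chocolate agar after 24 h growth and standardised by optical density at 600 nm. Compounds were serially diluted twofold in Fastidious broth, and bacteria added to give 5×10^5 CFU/mL. After about 24 h at 36 °C in 5% CO2, the lowest concentration allowing under 10% growth was taken as MIC.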

[4] = test system: N. gonorrhoeae FA1090; assay: Liquid broth MIC in Fastidious broth; type: cell-based; details: Neisseria gonorrhoeae, Fastidious broth
Summary of the method: as §1

[5] = test system: N. gonorrhoeae H041; assay: Liquid broth MIC in Fastidious broth; type: cell-based; details: Neisseria gonorrhoeae
Summary of the method: (§2)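 Strains bearing mosaic PBP2 grown 24 h on chocolate agar (36° C, 5% CO2), suspended in saline and added to 2-fold compound dilutions in Fastidious broth at 5×10^5 CFU/mL. After ~24 hours at 36° C with 5% CO2, MIC taken visually as lowest well with <10% growth relative to full growth.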

[6] = test system: N. gonorrhoeae WHO G; assay: Liquid broth MIC in Fastidious broth; type: cell-based; details: Neisseria gonorrhoeae, Fastidious broth
Summary of the method: as §1

[7] = test system: N. gonorrhoeae WHO K; assay: Liquid broth MIC in Fastidious broth; type: cell-based; details: Neisseria gonorrhoeae
Summary of the method: as §2

[8] = test system: N. gonorrhoeae WHO L; assay: Liquid broth MIC in Fastidious broth; type: cell-based; details: Neisseria gonorrhoeae, Fastidious broth
Summary of the method: as §1

[9] = test system: N. gonorrhoeae WHO Q; assay: Liquid broth MIC in Fastidious broth; type: cell-based; details: Neisseria gonorrhoeae
Summary of the method: as §2

[10] = test system: N. gonorrhoeae WHO Z; assay: Liquid broth MIC in Fastidious broth; type: cell-based; details: Neisseria gonorrhoeae
Summary of the method: as §2

[11] = N. gonorrhoeae ATCC 49226, read-out: Minimum Inhibitory Concentration, ATCC 49226
[12] = N. gonorrhoeae FA1090, read-out: Minimum Inhibitory Concentration, FA1090
[13] = H041, read-out: Minimum Inhibitory Concentration, H041
[14] = N. gonorrhoeae WHO G, read-out: Minimum Inhibitory Concentration, WHO G
[15] = read-out: Minimum Inhibitory Concentration, WHO K
[16] = N. gonorrhoeae WHO L, read-out: Minimum Inhibitory Concentration, WHO L
[17] = read-out: Minimum Inhibitory Concentration, WHO Q
[18] = read-out: Minimum Inhibitory Concentration, WHO Z
[19] = N. gonorrhoeae strain ATCC 49226, read-out: Minimum Inhibitory Concentration, N. gonorrhoeae ATCC 49226
[20] = N. gonorrhoeae strain FA1090, read-out: Minimum Inhibitory Concentration, N. gonorrhoeae FA1090
[21] = H041, read-out: Minimum Inhibitory Concentration, N. gonorrhoeae H041
[22] = N. gonorrhoeae strain WHO G, read-out: Minimum Inhibitory Concentration, N. gonorrhoeae WHO G
[23] = read-out: Minimum Inhibitory Concentration, N. gonorrhoeae WHO K
[24] = N. gonorrhoeae strain WHO L, read-out: Minimum Inhibitory Concentration, N. gonorrhoeae WHO L
[25] = read-out: Minimum Inhibitory Concentration, N. gonorrhoeae WHO Q
[26] = read-out: Minimum Inhibitory Concentration, N. gonorrhoeae WHO Z

T1 sequence (P0AD68 1-577): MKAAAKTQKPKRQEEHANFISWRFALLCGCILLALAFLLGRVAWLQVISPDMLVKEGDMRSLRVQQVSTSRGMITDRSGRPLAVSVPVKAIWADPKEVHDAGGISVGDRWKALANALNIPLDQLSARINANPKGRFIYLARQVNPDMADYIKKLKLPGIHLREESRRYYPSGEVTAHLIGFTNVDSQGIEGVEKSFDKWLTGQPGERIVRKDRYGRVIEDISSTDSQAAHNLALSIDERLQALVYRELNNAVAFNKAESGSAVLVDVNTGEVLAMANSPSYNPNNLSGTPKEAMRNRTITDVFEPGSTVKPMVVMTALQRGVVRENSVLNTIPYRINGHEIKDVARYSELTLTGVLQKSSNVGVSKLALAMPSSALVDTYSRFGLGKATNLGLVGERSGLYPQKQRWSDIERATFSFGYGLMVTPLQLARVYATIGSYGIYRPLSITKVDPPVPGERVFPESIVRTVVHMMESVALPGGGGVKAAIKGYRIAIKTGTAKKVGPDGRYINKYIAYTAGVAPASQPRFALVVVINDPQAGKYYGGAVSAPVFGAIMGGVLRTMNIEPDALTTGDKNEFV

For `NCCN1CCN(C(=O)N[C@H](C(=O)N[C@H]2Cc3cccc(C(=O)O)c3OB2O)c2c(F)cccc2F)C(=O)C1=O` (single isomer, unassigned) [Example 204], the EC50 [1] was > 500 µM, the “P. aeruginosa PBP3 Potency” value [2] was “B (B represents a potency between 30 μM and 500 μM inclusive)” and the MIC [3, 11] was > 64 µg/mL. For the same compound, the MIC [4, 12] was 16 to 32 µg/mL (≈ 28.6 to 57.2 µM), the MIC [5, 13] was > 64 µg/mL and the MIC [6, 14] was > 64 µg/mL. For the same compound, the MIC [7, 15] was > 64 µg/mL, the MIC [8, 16] was > 64 µg/mL and the MIC [9, 17] was > 64 µg/mL. The MIC [10, 18] was > 64 µg/mL.
For `NCCN1CCN(C(=O)N[C@@H](C(=O)N[C@H]2Cc3cccc(C(=O)O)c3OB2O)c2c(F)cccc2Cl)C(=O)C1=O` (single isomer, unassigned) [Example 205], the EC50 [1] was 30 to 500 µM, the “P. aeruginosa PBP3 Potency” value [2] was “C (C represents a potency between 10 and 30 μM)” and the MIC [3, 11] was > 64 µg/mL. For the same compound, the MIC [4, 12] was 16 to 32 µg/mL (≈ 27.8 to 55.6 µM), the MIC [5, 13] was > 64 µg/mL and the MIC [6, 14] was > 64 µg/mL. The MIC [7, 15] was > 64 µg/mL, the MIC [8, 16] was > 64 µg/mL and the MIC [9, 17] was > 64 µg/mL. For the same compound, the MIC [10, 18] was > 64 µg/mL.
In the case of `NCCN1CCN(C(=O)N[C@H](C(=O)N[C@H]2Cc3cccc(C(=O)O)c3OB2O)c2c(F)cccc2Cl)C(=O)C1=O` (single isomer, unassigned) [Example 206], the EC50 [1] is reported as > 500 µM, the “P. aeruginosa PBP3 Potency” value [2] is reported as “B (B represents a potency between 30 μM and 500 μM inclusive)” and the MIC [3, 11] is reported as > 64 µg/mL. The MIC [4, 12] was > 64 µg/mL, the MIC [5, 13] was > 64 µg/mL and the MIC [6, 14] was > 64 µg/mL. The MIC [7, 15] was > 64 µg/mL, the MIC [8, 16] was > 64 µg/mL and the MIC [9, 17] was > 64 µg/mL. The MIC [10, 18] was > 64 µg/mL.
In the case of `CCN1CCN(C(=O)N[C@@H](C(=O)N[C@H]2Cc3ccc(F)c(C(=O)O)c3OB2O)c2c(Cl)cc(O)c(O)c2F)C(=O)C1=O` (single isomer, unassigned) [Example 207], the EC50 [1] is reported as < 30 µM, the “P. aeruginosa PBP3 Potency” value [2] is reported as “D (D represents a potency <10 μM)” and the MIC [3, 11] is reported as 16 to 32 µg/mL (≈ 26.2 to 52.4 µM). The MIC [4, 12] was 4 to 8 µg/mL (≈ 6.55 to 13.1 µM), the MIC [5, 13] was > 64 µg/mL and the MIC [6, 14] was 16 to 32 µg/mL (≈ 26.2 to 52.4 µM). The MIC [7, 15] was > 64 µg/mL, the MIC [8, 16] was > 64 µg/mL and the MIC [9, 17] was > 64 µg/mL. It also gave an MIC [10, 18] of 16 to 32 µg/mL (≈ 26.2 to 52.4 µM).
For `NCCCN1CCN(C(=O)NC(C(=O)N[C@H]2Cc3cccc(C(=O)O)c3OB2O)c2c(F)cc(O)cc2F)C(=O)C1=O` (stereo partly drawn) [Example 183, (3R)-3-(2-(4-(3-aminopropyl)-2,3-dioxopiperazine-1-carboxamido)-2-(2,6-difluoro-4-hydroxyphenyl)acetamido)-2-hydroxy-3,4-dihydro-2H-benzo[e][1,2]oxaborinine-8-carboxylic acid], the EC50 [1] was < 30 µM, the “P. aeruginosa PBP3 Potency” value [2] was “D (D represents a potency <10 μM)” and the MIC [3, 19] was 16 to 32 µg/mL (≈ 27.2 to 54.3 µM). For the same compound, the MIC [4, 20] was 1 to 2 µg/mL (≈ 1.7 to 3.39 µM), the MIC [5, 21] was > 64 µg/mL and the MIC [6, 22] was 16 to 32 µg/mL (≈ 27.2 to 54.3 µM). The MIC [7, 23] was > 64 µg/mL, the MIC [8, 24] was > 64 µg/mL and the MIC [9, 25] was > 64 µg/mL. The MIC [10, 26] was > 64 µg/mL.
With `CCN1CCN(C(=O)NC(C(=O)N[C@H]2Cc3cccc(C(=O)O)c3OB2O)c2cc([N+](=O)[O-])c(O)cc2F)C(=O)C1=O` (stereo partly drawn) [Example 184, (3R)-3-(2-(4-ethyl-2,3-dioxopiperazine-1-carboxamido)-2-(2-fluoro-4-hydroxy-5-nitrophenyl)acetamido)-2-hydroxy-3,4-dihydro-2H-benzo[e][1,2]oxaborinine-8-carboxylic acid] the EC50 [1] was < 30 µM, the “P. aeruginosa PBP3 Potency” value [2] was “D (D represents a potency <10 μM)” and the MIC [3, 19] was 4 to 8 µg/mL (≈ 6.81 to 13.6 µM). For the same compound, the MIC [4, 20] was < 0.125 µg/mL, the MIC [5, 21] was 16 to 32 µg/mL (≈ 27.2 to 54.5 µM) and the MIC [6, 22] was 1 to 2 µg/mL (≈ 1.7 to 3.41 µM). It also gave an MIC [7, 23] of 16 to 32 µg/mL (≈ 27.2 to 54.5 µM), an MIC [8, 24] of 16 to 32 µg/mL (≈ 27.2 to 54.5 µM) and an MIC [9, 25] of 4 to 8 µg/mL (≈ 6.81 to 13.6 µM). It also gave an MIC [10, 26] of 4 to 8 µg/mL (≈ 6.81 to 13.6 µM).
In the case of `CCN1CCN(C(=O)NC(C(=O)N[C@H]2Cc3cccc(C(=O)O)c3OB2O)c2ccc(O)c(Cl)c2F)C(=O)C1=O` (stereo partly drawn) [Example 185, (3R)-3-(2-(3-chloro-2-fluoro-4-hydroxyphenyl)-2-(4-ethyl-2,3-dioxopiperazine-1-carboxamido)acetamido)-2-hydroxy-3,4-dihydro-2H-benzo[e][1,2]oxaborinine-8-carboxylic acid], the EC50 [1] is reported as < 30 µM, the “P. aeruginosa PBP3 Potency” value [2] is reported as “D (D represents a potency <10 μM)” and the MIC [3, 19] is reported as 4 to 8 µg/mL (≈ 6.94 to 13.9 µM). The MIC [4, 20] was < 0.125 µg/mL, the MIC [5, 21] was 16 to 32 µg/mL (≈ 27.7 to 55.5 µM) and the MIC [6, 22] was 4 to 8 µg/mL (≈ 6.94 to 13.9 µM). It also gave an MIC [7, 23] of 16 to 32 µg/mL (≈ 27.7 to 55.5 µM), an MIC [8, 24] of 16 to 32 µg/mL (≈ 27.7 to 55.5 µM) and an MIC [9, 25] of 16 to 32 µg/mL (≈ 27.7 to 55.5 µM). It also gave an MIC [10, 26] of 4 to 8 µg/mL (≈ 6.94 to 13.9 µM).
